Measured values reported in patent US10709132B2, “Microbicidal composition” (DDP SPECIALTY ELECTRONIC MATERIALAS US, INC., priority 2015, dated 2020).
Read-outs that look alike come from different tables or passages of the source.

Assays:
Assay type in all cases: cell-based
[1] = system: Candida albicans ATCC #10231; test: Synergy test by MIC in 96 well microtiter plates, yeast; conditions: ATCC10231, C. albicans, 25° C., potato dextrose broth, read-out: MIC of compound acting alone (CA / CB)
Procedure: (§1) DMO with Pine oil was evaluated for synergy by determining the synergy index (S.I.) of the combination. Incubation temperature for bacteria was 30° C. and for fungi was 25° C. Synergy index was calculated based on minimum inhibitory concentrations (MIC) of two antimicrobial compounds (CA and CB) alone and in combinations (Ca and Cb). The test organisms were gram negative bacteria (Pseudomonas aeruginosa ATCC #15442), gram positive bacteria (Staphylococcus aureus ATCC #6538), and yeast (Candida albicans ATCC #10231) and mold (Aspergillus brasiliensis ATCC #16404). The test was carried out in 96 well microtiter plates. Contact time for the bacteria and yeast was 24 and 48 hours, and contact time for mold was 3 and 7 days. […] SI is calculated as follows: Ca/CA+Cb/CB=Synergy Index (“SI”) Wherein: • CA=concentration of compound A in ppm, acting alone, which produced an end point (MIC of Compound A). • Ca=concentration of compound A in ppm, in the mixture, which produced an end point. • CB=concentration of compound B in ppm, acting alone, which produced an end point (MIC of Compound B). • Cb=concentration of compound B in ppm, in the mixture, which produced an end point. When the sum of Ca/CA and Cb/CB is greater than one, antagonism is indicated. […] [table] [table] [table]

[2] = system: Staphylococcus aureus ATCC #6538; test: Synergy test by MIC in 96 well microtiter plates, gram positive bacteria; conditions: ATCC6538, S. aureus, 30° C., 10% tryptic soy broth, read-out: MIC of compound acting alone (CA / CB)
Procedure: as §1

[3] = system: Aspergillus brasiliensis ATCC #16404; test: Synergy test by MIC in 96 well microtiter plates, mold; conditions: ATCC16404, 168 h, A. brasiliensis, contact time 7 days, 25° C., potato dextrose broth, read-out: MIC of compound acting alone (CA / CB)
Procedure: as §1

MIC ([1]; contact time 24 hrs): 1000 µg/mL | MIC ([1]; contact time 48 hrs): 1000 µg/mL | MIC ([2]; contact time 24 hrs): 75 µg/mL | MIC ([2]; contact time 48 hrs): 75 µg/mL | MIC [3]: 500 µg/mL
SMILES: CC1(C)COCN1 [DMO, 4,4-dimethyloxazolidine]
